{"source": "patent US20250090498A1", "about": "“TREATMENT OF PRIMARY CTLA-4 CHECKPOINT RELATED IMMUNODEFICIENCIES” (ADIENNE PHARMA & BIOTECH SA, priority 2023, published 2025)", "key": {"[1]": {"experiment": "preliminary pharmacokinetics in serum after Eudragit-formulated 3-IAld (90% 3-IAld/10% 13C8-labeled 3-IAld), mass spectrometry", "format": "in vivo", "experimental": "Primary pharmacodynamics studies have been performed. The mode of action of 3-IAld occurs upon binding to AhR, both in vitro and in vivo. In vitro, 3-IAld induced luciferase activity in the H1L1.1c2 cell line containing a stably-transfected AhR-responsive firefly luciferase at the dose range […] (Zelante et al, 2013). […] Preliminary pharmacokinetics data have been obtained by administration of Eudragit-formulated 3-IAld in the composition 90% 3-IAld/10% 13C8-labeled 3-IAld and targeted/untargeted analysis by mass spectrometry in serum at different times (30 minutes (min), 1 hour (h), 2 h, 4.5h, 6 h, 24h). […] The presence of indole-3-formic acid was also confirmed with labelled 3-IAld (FIG. 13E), showing a similar kinetics and a peak level of about 25 μM at 30 min."}, "AhR": {"target": "T1, AhR (Homo sapiens, UniProt P35869)", "T1 sequence (P35869 11-848)": "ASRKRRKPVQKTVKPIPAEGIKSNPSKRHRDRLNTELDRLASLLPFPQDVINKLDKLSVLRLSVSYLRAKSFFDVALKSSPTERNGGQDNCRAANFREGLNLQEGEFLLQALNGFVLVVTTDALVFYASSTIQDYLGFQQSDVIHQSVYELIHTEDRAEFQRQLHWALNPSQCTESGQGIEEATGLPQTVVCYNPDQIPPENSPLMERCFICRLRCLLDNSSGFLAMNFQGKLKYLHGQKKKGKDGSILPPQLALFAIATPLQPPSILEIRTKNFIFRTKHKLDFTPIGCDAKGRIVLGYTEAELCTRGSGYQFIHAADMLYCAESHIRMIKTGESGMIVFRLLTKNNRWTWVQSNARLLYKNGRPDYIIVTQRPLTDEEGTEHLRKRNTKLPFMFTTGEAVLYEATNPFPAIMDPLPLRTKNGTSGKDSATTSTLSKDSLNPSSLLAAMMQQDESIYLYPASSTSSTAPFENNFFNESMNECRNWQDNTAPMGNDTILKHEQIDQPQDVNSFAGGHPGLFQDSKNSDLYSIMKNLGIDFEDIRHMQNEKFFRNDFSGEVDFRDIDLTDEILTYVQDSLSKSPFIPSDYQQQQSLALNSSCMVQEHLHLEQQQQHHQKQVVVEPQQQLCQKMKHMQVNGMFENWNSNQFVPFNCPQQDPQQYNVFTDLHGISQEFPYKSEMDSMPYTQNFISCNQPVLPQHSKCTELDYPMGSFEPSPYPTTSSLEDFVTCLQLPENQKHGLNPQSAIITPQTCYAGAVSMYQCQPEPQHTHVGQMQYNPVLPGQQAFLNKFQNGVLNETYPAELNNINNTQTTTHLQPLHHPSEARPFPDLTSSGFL", "experiment": "Cyp1A1 induction in HepG2 liver cancer cell line", "format": "cell-based", "design": "endogenous in cells; host or cells: HepG2, A549, Calu-3, CaCo-2", "conditions": "for induction of the AhR activation marker Cyp1A1 (mRNA): between 1 and 100 μM", "from_the_text": "FIG. 14 graphically represents Cypla1 mRNA fold increase with the addition of 3-IAld or Ox-3-IAld."}, "[2]": {"experiment": "single-dose pharmacokinetic study in healthy C57BL/6 mice, tissues and serum by mass spectrometry", "description": "A single-dose pharmacokinetic (PK) study was performed on healthy C57BL/6 mice to compare 1ME3CA and 3-IAld at 0.36 mg/topo dose. Untreated naïve mice were used as the control. […] Blood, obtained by cardiac puncture and collected into EDTA-containing tubes, and organs (brain, lung, intestine, liver and kidney) were assessed. All samples were stored at −80° C. until use. To evaluate 1ME3CA and 3-IAld for functional activity, the expression of AhR-downstream genes were concomitantly evaluated in these mice."}}, "data": [{"smiles": "Cn1c(C(=O)O)cc2ccccc21", "note": "[1-Methylindole-2-carboxylic acid]", "values": [{"measurement": "serum level of methylated forms of indole-3-formic acid at 1 hour", "setting": "[1]; 1 hour after 3-IAld", "result": "reduced levels"}, {"measurement": "peak serum level of methylated forms of indole-3-formic acid", "setting": "[1]; at 30 minutes after 3-IAld", "result": "about 150 nM"}]}, {"smiles": "COC(=O)c1c[nH]c2ccccc12", "note": "[Methyl indole-3-carboxylate]", "values": [{"measurement": "serum level of methylated forms of indole-3-formic acid at 1 hour", "setting": "[1]; in vivo", "result": "reduced levels"}]}, {"smiles": "O=C(O)c1c[nH]c2ccccc12", "note": "[indole-3-formic acid]", "values": [{"measurement": "pharmacological activity in vitro", "setting": "AhR", "result": "pharmacologically active"}, {"measurement": "induction of the AhR activation marker Cyp1A1 (mRNA)", "setting": "AhR", "result": "induce the AhR activation marker Cyp1A1 in a dose-dependent manner"}, {"measurement": "induction of the AhR activation marker Cyp1A1 (mRNA)", "setting": "AhR; listed as Ox-3-IAld", "result": "induction of the AhR activation marker Cyp1A1 in a dose-dependent manner"}, {"measurement": "concentrations in all organs", "setting": "[2]; after enteric 1ME3CA 18 mg/Kg", "result": "basal"}, {"measurement": "clearance of metabolites from the organs", "setting": "[2]; after oral 3-IAld 18 mg/Kg", "result": "rapid clearance"}, {"measurement": "presence as metabolite of 3-IAld in serum and other tissues", "setting": "[2]; after oral 3-IAld 18 mg/Kg", "result": "main metabolite"}]}]}
